Data: the supplement of paper PMC11997997

Key:
[1] = system: murine bone marrow-derived macrophages; assay: area under cytotoxicity dose-response curve (AUC (% cytotoxicity x dose, relative)); higher = more cytotoxic; conditions: duration: 6 days; dose range: 0.13-80 uM, 8 points
Summary of the method: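 Using opaque 384-well plates, primary murine bone marrow-derived macrophages were treated for 6 days at 37 °C in 5% CO2 with an 8-point, 2.5-fold dilution series spanning final concentrations of 80–0.13 μM. After CellTiter-Glo (Promega) luminescence readout of viability, percent cytotoxicity was normalised to vehicle and positive control wells. The reported value is the area under the dose–response curve for cytotoxicity, derived in GraphPad Prism version 10.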

[2] = system: Mycobacterium tuberculosis CDC1551 (intracellular, in murine BMDM); assay: area under intracellular growth-inhibition dose-response curve (AUC (% inhibition x dose, relative)); higher = more potent; conditions: duration: 6 days; dose range: 0.13-80 uM, 8 points
Summary of the method: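 Primary murine bone marrow-derived macrophages in 384-well opaque plates were infected 24 h after seeding with luciferase-expressing M. tuberculosis CDC1551 at multiplicity of infection 1 for 1 h. They were then treated with an 8-dose, 2.5-fold series (final 80–0.13 μM) for 6 days. Growth was read by Bright-Glo luciferin assay and normalised to a reference drug control and the lowest-concentration wells. The value is the area under the growth-inhibition dose–response curve, calculated in GraphPad Prism.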

Compound	area under cytotoxicity dose-response curve [1]	area under intracellular growth-inhibition dose-response curve [2]
O=C(N/N=C/c1c(F)c(F)c(F)c(F)c1F)c1ccc(Cn2cc(Br)cn2)o1	< 0	154
C/C(CC(=O)Nc1ccc(Cl)cc1Cl)=N\NC(=O)c1ccncc1	46.2	270
CC(C)/N=c1\cc2n(-c3ccc(Cl)cc3)c3ccccc3nc-2cc1Nc1ccc(Cl)cc1	73.5	208
Cc1cccc(OCCCC(=O)NNC(=O)c2ccncc2)c1	< 0	224
O=[N+]([O-])c1ccc(CN2CCN(c3ccc(Cl)cc3)CC2)o1	33.9	222
Cc1ccc(C2=NN(C(=O)CCl)C(c3cccs3)C2)o1 (stereo unspecified)	25.9	105
CCOC(=O)c1cn(Cc2cccc(C)c2)nn1	56.6	98.1
CCOc1c2c(nc3ccc(Cl)cc13)CCC2	57.1	157
O=[N+]([O-])c1cc(Cl)c(O)c(-[n+]2c(-c3ccccc3)cc(-c3ccccc3)cc2-c2ccccc2)c1.[O-][Cl+3]([O-])([O-])[O-]	35.3	150
COc1ccc(CNc2ncc(-c3ccc(Br)cc3)n2C)cc1OC.O=C(O)C(=O)O	42.6	113
Cc1ccc(C)c(N2CCN(CCCNC(=O)Cn3cccc3C(=O)c3ccccc3C)CC2)c1	3.91	84.4
Cc1c(C)c2cccnc2c2ncccc12	36.7	162
Fc1ccc(C2=CC(c3cccs3)n3nnnc3N2)cc1 (stereo unspecified)	< 0	216
Cn1c(COc2ccc(Cl)cc2)nnc1SCC(=O)NC1CC1	96	24.4
Cc1ccc(C(=O)NC(C)C2CC3CCC2C3)cc1 (stereo unspecified)	< 0	267
COc1cccc(OCCNC(=O)c2cc([N+](=O)[O-])cc([N+](=O)[O-])c2)c1	10.6	265
COc1ccc(NC(=S)Nc2ccc(Oc3ccccc3)cc2)cc1	< 0	233
Cc1cc(/C=N/NC(N)=S)c(C)n1-c1ccc(Cl)cc1	44.8	220
COc1cc(CNC23CC4CC(CC(C4)C2)C3)ccc1OCc1ccccc1.Cl	89.1	143
CN(Cc1ccccc1)C(=O)CCc1ccccc1	< 0	181
COc1cc(/C=N/NC(=O)c2ccncc2)ccc1OC(C)=O	37.6	273

Compound	area under cytotoxicity dose-response curve [1]	area under intracellular growth-inhibition dose-response curve [2]
CC(C)(O)C(=O)Nc1ccc([N+](=O)[O-])c(C(F)(F)F)c1	82.8	35.7
NC(=S)N/N=C/c1ccc(Br)o1	3.81	246
O=C(CCN1C(=O)S/C(=C\c2ccc(F)cc2)C1=O)Nc1ccc(C(=O)O)c(O)c1	11.3	120
O=C(c1ccc([N+](=O)[O-])o1)N(Cc1nnc(-c2ccccc2Cl)o1)C1CC1	41.5	192
O=C(CSc1cccc[n+]1[O-])c1cc(Cl)ccc1Cl	47.3	127
Cc1ccc(C(=O)c2oc3ccc(Cl)cc3c2NC(=O)CN2CCN(C)CC2)cc1	69.1	131
CC(C)(C)c1csc(N/N=C/c2ccc(O)cc2)n1	19.1	235
COc1ccc(CNc2nc3nc(C)c(Cl)c(O)n3n2)cc1	9.37	186
O=C(c1ccc(Cl)s1)N1CCN(c2ncccn2)CC1	31.4	86.8
O=C(C=Cc1cccc(Cl)c1)c1ccccc1	6.7	252
CCNC(=S)N/N=C(\C)c1ccc(N2CCOCC2)cc1	43.5	164
COc1ccc(CCNc2cc(-c3ccccc3)nc3ncnn23)cc1	< 0	218
CC(=O)Nc1ccccc1NC(=O)C/C(C)=N/NC(=O)c1ccncc1	38.1	168
CCN(CC)CCN(C(=O)c1ccc2c(c1)OCCO2)c1nc2cc(C)cc(C)c2s1.Cl	8.98	246
O=C(NC(CO)C(O)c1ccc([N+](=O)[O-])cc1)C(Cl)Cl (stereo unspecified)	21.4	113
NC(=S)N/N=C/c1ccc(-c2cc(Cl)cc(Cl)c2)o1	41.6	230
Cc1cc(C)c2c(n1)sc1c(N3CCCCC3)ncnc12	73.3	142
Cl.c1ccc(-c2nc(NCCCn3ccnc3)c3oc4ccccc4c3n2)cc1	34.7	172
O=C(NCc1ccco1)c1csc2c1CCCCC2	55.5	212
CCOC(=O)c1ccc(N2CN(CC)CNC2=S)cc1	10.1	254
CCS(=O)(=O)N1CCN(C(=O)CCC2CCCC2)CC1	19.5	214

Compound	area under cytotoxicity dose-response curve [1]	area under intracellular growth-inhibition dose-response curve [2]
NC1CCN(c2c(F)cc3c(=O)c(C(=O)O)cn(C4CC4)c3c2Cl)C1 (stereo unspecified)	< 0	210
Cc1c(Cc2ccccc2)c(NCCCO)n2c(nc3ccccc32)c1C#N	< 0	148
CCCc1ccc(C(=O)CCC(=O)NNC(=O)c2ccncc2)cc1	9.69	270
COc1cc(/C=N/NC(N)=S)ccc1OC(=O)c1ccc(C)cc1	23.5	264
O=C(Nc1ccc(S(=O)(=O)Nc2nccs2)cc1)C(F)(F)F	30	159
NC(=S)N/N=C/C=C/c1ccccc1	82.2	243
O=C(NC1CCCC1)c1ccc(Br)s1	54.8	220
O=[N+]([O-])c1ccccc1-c1cc(-c2ccccc2)cc(-c2ccccc2)[n+]1Cc1ccccc1Cl.[O-][Cl+3]([O-])([O-])[O-]	< 0	144
CCn1c(-c2cccs2)nc2ccccc21	69.6	194
COc1ccc(/C=N/NC(=O)c2ccncc2)cc1CN1CCCc2ccccc21	19.4	201
O=C(NCc1ccc2c(c1)OCO2)c1cccc(F)c1	< 0	222
CCOc1ccc(/C=N/NC(N)=S)cc1	28.9	270
FC(F)(F)c1nnc2ccc(Cl)nn12	62.7	36.2
O=C(/C=C/c1cn(CC(O)CN2CCCCCC2)c2ccccc12)c1cccs1 (stereo unspecified)	< 0	96.5
O=C(N/N=C/c1cccn1-c1ccccc1)c1ccncc1	57.4	251
COc1ccc2nc(N3CCN(C(=O)c4ccc([N+](=O)[O-])o4)CC3)sc2c1	87	33.1
COc1ccccc1OCC(=O)N/N=C/C=C/c1ccc([N+](=O)[O-])o1	< 0	73.2
CCCCCc1ccc(OCCCC[n+]2ccccc2)c(CCCCC)c1.[Cl-]	79.3	16
Br.COc1ccc(C2=CSC(/N=C/c3ccc(F)cc3)=NN2)cc1	49.1	182
Cc1c(Cl)cccc1NC(=S)NCC(O)c1ccccc1 (stereo unspecified)	81.9	158
Clc1ccc2nnc(Cl)n2n1	54	79.4
